Reference: a melting point compilation (Tetko et al.; mined from patent text by program, amines drawn as free bases though some values may be those of a salt)

Work on `CC(=O)NCc1ccc(/C=C/C(c2cc(Cl)cc(Cl)c2)C(F)(F)F)cc1Cl` (centres undefined) yielded a melting point of 127 to 128 °C. `Cc1ccc(S(=O)(=O)Oc2ccc(C(c3ccc(OS(=O)(=O)c4ccc(C)cc4)c([N+](=O)[O-])c3)(C(F)(F)F)C(F)(F)F)cc2[N+](=O)[O-])cc1` gave a melting point of 206 to 208 °C. Work on `COc1c(C(=O)O)ccc(Cl)c1SC` yielded a melting point of 121 to 123 °C. For `CCCCCCCCC(=O)Nc1cc([N+](=O)[O-])ccc1O`, the melting point was 140 to 141 °C. Compound `CC(=O)OC1CCC2(C)C(CCC3C2CCC2(C)C(=O)CCC32O)C1` (centres undefined) has a melting point of 182 to 184 °C. With `O=C(O)c1ccccc1-c1cc(-c2ccccc2)on1` the melting point was 144 to 146 °C. `Cc1c(-c2ccccc2)c2cc(Cl)cc3c2n1CC3` showed a melting point of 202 to 204 °C. Compound `CCN1CCCC1CNC(=O)c1sc(CO)c(C)c1OC` (centres undefined) has a melting point of 118 to 119 °C. Compound `COc1ccc(Cc2nc3cc(Cl)cc(CC=NO)c3o2)cc1OC1CCCC1` has a melting point of 149 to 151 °C. In the case of `Nc1nc(Nc2ccccc2)sc1C(=O)c1c(F)cccc1F`, the melting point is reported as 183 to 184 °C. `CN1CC[C@H](c2ccccc2)[C@H](O)C1` (relative stereo) gave a melting point of 95 to 97 °C. With `CN(C)CCCOc1ccc(-c2nnc(CSCCOc3ccccc3)s2)cc1` the melting point was 72 to 73 °C. `N#Cc1ccc(C(F)(F)F)cc1NN=Nc1ccccc1` showed a melting point of 139 to 141 °C. For `c1ccc(-c2cc3ccccc3n2-c2ccccc2)cc1`, the melting point was 78 to 80 °C. Work on `COc1nnc(-c2ccc3ncn(-c4ccc(OC(F)(F)F)cc4)c3c2)o1` yielded a melting point of 150 to 151 °C. `CCCOc1ccc(NC(=O)N2CCN(c3ncnc4cc(OC)c(OC)cc34)CC2)cc1` showed a melting point of 218 to 220 °C. `O=C1C(=O)c2ccc(Cl)cc2C2=C1SCC1(CCN(C(=O)c3cccc(Cl)c3)CC1)O2` gave a melting point of 125 to 130 °C. `COC(=O)NCc1nc(-c2cc(C(C)(C)C)c(O)c(C(C)(C)C)c2)cs1` showed a melting point of 94 to 95.9 °C. With `CCOc1cc(N)c(Cl)cc1C(=O)NCC1CN(CC2CCN(C#N)CC2)CCO1` (centres undefined) the melting point was 197 °C. `N#Cc1cc(N2CCN(CC[C@H]3CC[C@H](NS(=O)(=O)c4cccnc4)CC3)CC2)cc(C(F)(F)F)c1` gave a melting point of 194 to 195 °C. `CCCCCCCCCCCCCCCCCC(=O)N1CCCCc2nc(-c3ccccc3)sc21` gave a melting point of 38 to 40 °C. With `COc1ccc(C(=O)Nc2cc(NC(=O)c3cccc(N)c3)ccc2C)cc1OC` the melting point was 179 to 180 °C. With `Cc1cccc(C)c1/N=C1\SCC(=O)N1/N=C/c1ccc(-c2ncn(-c3ccc(OC(F)(F)F)cc3)n2)cc1` the melting point was 209 to 213 °C. Work on `NC1CCCCC1N1CCC(Cc2ccc(Cl)cc2)CC1` (centres undefined) yielded a melting point of 69.1 to 70.4 °C. Compound `Clc1cccc(Nc2ncnc3[nH]nc(N4CCOCC4)c23)c1` has a melting point of 275 to 276 °C. Compound `CCOC(OCC)c1c(C#N)cnn1-c1cc(SC)n(C)n1` has a melting point of 154 to 158 °C. Work on `O=Cc1cccn1CCN1CCC(=C2c3ccccc3CCn3ccnc32)CC1` yielded a melting point of 158 °C. Compound `Cc1cc(C(=O)O)c2c(c1)C(C(Cl)(Cl)Cl)OC(C(Cl)(Cl)Cl)O2` (centres undefined) has a melting point of 290 to 291 °C. For `CCCOCc1cc(OC)c(-c2ccc(C[C@H](NC(=O)c3c(Cl)cccc3Cl)C(=O)O)cc2)c(OC)c1`, the melting point was 183 to 186 °C. With `CON(Cc1ccc(C)c(F)c1)C(=O)C1=C(O)C(=O)N(C)C1` the melting point was 145 °C. With `Cc1ccc(S(=O)(=O)OC[C@H]2CN(c3ccc(N4CCSCC4)c(F)c3)C(=O)O2)cc1` the melting point was 141 °C. Compound `O=C(O)C1=Cc2cc(-c3ccc(F)cc3)ccc2CC1` has a melting point of 213 to 214 °C. `O=C(NCCN1CCCC1)N1CCN(c2ccc(F)cc2)CC1` gave a melting point of 100 to 102 °C. `NS(=O)(=O)c1ccc(-c2nc(-c3ncn4c(C(F)(F)F)cc(-c5ccc(C(F)(F)F)cc5)nc34)no2)cc1` showed a melting point of 303 °C. `CCCOc1ccnc(CS(=O)c2nc3ccccc3[nH]2)c1C` (centres undefined) showed a melting point of 81 to 83 °C. In the case of `CCN1C(=O)C(C)(C)C(=O)N(C)c2cc(CCN(CCn3cc(C)c4oc(C)cc4c3=O)Cc3cnccc3C)ccc21`, the melting point is reported as 155 to 156 °C. `O=C(C(=O)N(CCO)CCO)c1ccc(OCCOc2ccc3ccccc3c2)cc1` gave a melting point of 128 to 133 °C. Compound `COc1ccc(Nc2cc(N3CCCC3)nc(N3CCCC3)n2)cc1` has a melting point of 162 to 163 °C. For `Cc1c(C)c2c(c([N+](=O)[O-])c1C)OC(C)(C)C2`, the melting point was 100 to 101 °C. `Cc1oc(-c2ccccc2)nc1COc1ccccc1C=CC=Cc1nnn[nH]1` showed a melting point of 192 to 193 °C. `Nc1c([N+](=O)[O-])sc2ccc([N+](=O)[O-])cc12` gave a melting point of 288 to 291 °C. Compound `Cn1cccc1C1=CC(=O)c2ncccc2C1=O` has a melting point of 167 to 168 °C. In the case of `CN(CCN=C(NC#N)NCCSCc1csc(NC(=N)N)n1)CCC(c1ccccc1)c1ccccn1` (centres undefined), the melting point is reported as 115 to 116 °C. With `O=C(NCCO)c1cnccn1` the melting point was 125 °C. Compound `CCn1c(=N)c(-c2ccsc2)cc2cnc(Nc3ccccc3)nc21` has a melting point of 220 to 222 °C. `CCN1C(=O)C(C)(C)C(=O)Nc2cc(C#N)ccc21` gave a melting point of 215 to 218 °C. Work on `COc1cc2ncc(C#N)c(Nc3ccc(SC)cc3)c2cc1OC` yielded a melting point of 235 to 237 °C. Work on `COc1ccc(CCNC(=O)Cc2ccc(-c3ccccc3)cc2)cc1OC` yielded a melting point of 103 to 105 °C. With `CC(C)C(=O)O[C@H](C)[C@@H](C)OC(=O)[C@@H](N)Cc1ccc(O)c(O)c1` the melting point was 165 to 166 °C. Compound `O=c1sc(=Nc2ccc(Cl)cc2)n2n1CCCC2` has a melting point of 82 to 85 °C. Work on `CCOC(=O)c1cc(N(C)S(C)(=O)=O)c(C)nc1C(=O)OCC` yielded a melting point of 90 to 93 °C. In the case of `CS(=O)(=O)OCCCCCCNC(=O)CNC(=O)OCc1ccccc1`, the melting point is reported as 82 to 83 °C. `COc1cc(CC(=O)CCNCCOc2ccc(C(=O)O)cc2OC)ccc1NC(=O)Nc1ccccc1F` gave a melting point of 105 to 110 °C. Compound `CCOC(=O)C(=O)Cc1cc(=O)n(Cc2ccc(Cl)cc2)c2ccccc12` has a melting point of 180 to 182 °C. With `CC(C)(C)NS(=O)(=O)c1ccc(N)cc1` the melting point was 127 °C. Compound `CC(=O)Oc1ccc(CCc2ccc(NC(=O)C3=C(O)c4ccccc4SC3)cc2)cc1OC(C)=O` has a melting point of 214 to 215 °C. `Cc1ccc(-c2ccccc2)c(C)c1CO` showed a melting point of 77 to 78 °C. `CC(C)CSCc1c(-c2ccc(S(C)(=O)=O)cc2)cnn(-c2ccc(F)cc2)c1=O` gave a melting point of 45 to 60 °C. Compound `Cc1cnc(N2CCN(CC[C@H]3CC[C@H](NC(=O)CC4CCOCC4)CC3)CC2)c2ccoc12` has a melting point of 206 °C. `CC(C)Cc1cc(NC(=O)c2nccnc2Cl)ccc1C(C(F)(F)F)C(F)(F)F` showed a melting point of 128 to 129 °C. `CN1CC2=C(n3cncc3C1)S(=O)C=C2` (centres undefined) showed a melting point of 160 to 163 °C. `CC(=O)SCC(CC(C)C)C(=O)NCCCCCC(N)=O` (centres undefined) gave a melting point of 64 to 80 °C. In the case of `COc1ccc(-c2cc(-c3ccccc3)nc(C)c2C(=O)Cl)cc1OC`, the melting point is reported as 140 °C. With `Cc1csc(CN(C)C(=O)C23CC4CC(CC(C4)C2)C3)c1` the melting point was 87 to 88 °C. With `N#CC(=NOCCn1cncn1)C(N)=O` the melting point was 137 °C. With `COc1cc2c(c(Cl)c1Cl)C(=O)C(C)(c1cccs1)C2` (centres undefined) the melting point was 145 to 146 °C. Compound `COc1ccc(Cn2cc([N+](=O)[O-])c(C(N)=O)n2)cc1` has a melting point of 192 to 193 °C. In the case of `CC1(C)C(=O)N(CC#CI)C(=O)N1Cc1ccccc1`, the melting point is reported as 109 to 112 °C. `O=C(O)Cc1cnn(-c2ccc(Cl)cc2)c1-c1ccccc1` showed a melting point of 110 to 111 °C. With `O=C1C(c2ccccc2)=C(c2ccccc2)C(=O)N1Cc1cccc(F)c1` the melting point was 107 to 108 °C. In the case of `CC(NC(=O)CNC(=O)c1ccccc1)C(C)(C)C` (centres undefined), the melting point is reported as 124 to 126 °C. Work on `CC(C#N)C(O)(Cn1cncn1)c1ccc(Cl)cc1Cl` (centres undefined) yielded a melting point of 164 °C. Compound `Cc1ccc(S(=O)(=O)C(CCl)Sc2cccc([N+](=O)[O-])c2)cc1` (centres undefined) has a melting point of 92 to 101 °C. With `O=C(O)CCC1(CCC(=O)O)CCCCC(CCC(=O)O)(CCC(=O)O)C1=O` the melting point was 230 to 232 °C. For `Cc1nc(CN(C)C(=O)N[C@H](C(=O)N[C@@H](Cc2ccccc2)[C@@H](O)C[C@H](Cc2ccccc2)NC(=O)OCc2cccnc2)C(C)C)cs1`, the melting point was 66 to 69 °C. For `CCCCCCCCCCCCCCCCCCOc1cccc(CC(=O)OC)c1`, the melting point was 43 to 45 °C. In the case of `O=C(O)CC1CCC2CC(=O)NC12` (centres undefined), the melting point is reported as 186 to 189 °C. Compound `COc1cc(OC)c(-c2c[nH]c(C3CC3)n2)cc1C=CC(=O)c1ccc(S(N)(=O)=O)cc1` has a melting point of 156 to 160 °C. Compound `CCS(=O)(=O)N1CCN(Cc2ccc(COc3cccc4c3CN(C3CCC(=O)NC3=O)C4=O)cc2)CC1` (centres undefined) has a melting point of 135 to 137 °C. For `O=C(CBr)c1ccc2c(c1)CCCS2`, the melting point was 92 to 94 °C. For `Cc1nc(N)c2nc3n(c2c1C)C(C)COC3` (centres undefined), the melting point was 264 to 267 °C. Compound `O=C(Nc1ccc(Cl)cc1)C(F)(F)C(O)(Cn1cncn1)c1ccc(F)cc1F` (centres undefined) has a melting point of 86 to 87 °C. `Cn1nc(C(=O)NCC2(O)CN3CCC2CC3)c2ccccc21` (centres undefined) showed a melting point of 147 to 149 °C. Work on `Nc1noc(CN2CCC[C@@H](OCc3cc(C(F)(F)F)cc(C(F)(F)F)c3)[C@H]2c2ccccc2)n1` (relative stereo) yielded a melting point of 138 to 139 °C. For `CCCc1c(Cc2ccccc2C(=O)O)cccc1OCCCOc1cc(O)c(-c2ccc(F)cc2)cc1CC`, the melting point was 150 to 151 °C. Work on `Nc1nc(OS(=O)(=O)c2ccccc2)ncc1F` yielded a melting point of 139 to 141 °C. `CCOc1cccc(-c2cc3n(n2)CCc2ccccc2-3)c1` gave a melting point of 103 to 104 °C. Work on `Cc1c(-c2ccccc2)oc2c(C(=O)CBr)cccc2c1=O` yielded a melting point of 134 to 135 °C. `CCC(C)n1nc(C)n(-c2ccc(N3CCCN(C(=O)OC(C)(C)C)CC3)cc2)c1=O` (centres undefined) showed a melting point of 119 to 120 °C. Compound `CCCc1nc(C(C)=O)c(C#N)[nH]1` has a melting point of 93 to 95 °C. `CCn1c(=O)c(-c2ccsc2)cc2cnc(Nc3ccccc3)nc21` showed a melting point of 223 to 225 °C. `CCNC(=C[N+](=O)[O-])SC` gave a melting point of 66 to 67.5 °C. In the case of `O=C(NNC(=O)c1ncnc2[nH]ccc12)OCc1ccccc1`, the melting point is reported as 187 to 188 °C. For `COc1ccc(-c2nc(CC(N)=O)sc2-c2ccc(OC)cc2)cc1`, the melting point was 124 to 127 °C. With `N#Cc1ccc(Oc2ccc(C#N)cc2C#N)cc1` the melting point was 222 to 223 °C. Work on `Cc1cccc(CC(=O)c2ccnc(Br)c2)n1` yielded a melting point of 126 °C. `COc1ccc(C(=O)Nc2ccc3ccc(C=CN(C)C)nc3n2)cc1` showed a melting point of 240 °C. Work on `Clc1ccc(C=NC(c2ccccc2)c2ccccc2)cc1` yielded a melting point of 83 to 84 °C. `COc1ccc(Nc2nc(NC3CCCCCC3)nc(Oc3ccccc3I)n2)cc1Cl` showed a melting point of 206 to 208 °C.
